In PMC11662536, “Targeting SARS-CoV-2 main protease: a comprehensive approach using advanced virtual screening, molecular dynamics, and in vitro validation” (Virology Journal, 2024) one finds IC50 data, which are given here for seven compounds.

Values joined by “and” are separate entries in the source; they are usually repeats but may differ in a detail not shown here. Equal entries are not always repeated. Bounds are passed on as bounds.

The target in the test is SARS-CoV-2_WT Mpro (Severe acute respiratory syndrome coronavirus 2, UniProt P0DTD1). The test can be described thus: biochemical. To be noted: 25 nM SARS-2 Mpro, 25 μM substrate, 30 min pre-incubation.
A word on the IC50: it is the concentration that gives 50% inhibition. A high value points to a need for much substance. On to `Oc1ccc(-c2c3oc4c(O)c(O)ccc4c3nc3c2c(O)nn3C2CCCCCC2)cc1O` [ID14, Oc1ccc(-c2c3oc4c(O)c(O)ccc4c3nc3c2c(O)nn3C2CCCCCC2)cc1O], for which the IC50 is less than 100 µM. For the compound `Oc1ccc(-c2c3oc4c(O)c(O)ccc4c3nc3c2c(O)nn3C2CCCCC2)cc1Cl` [ID35, Oc1ccc(-c2c3oc4c(O)c(O)ccc4c3nc3c2c(O)nn3C2CCCCC2)cc1Cl], the IC50 is < 100 µM and 59.4 µM. In the case of `Oc1ccc2c(c1)oc1c(-c3ccc(O)c(O)c3)c3c(O)nn(C4CCCCC4)c3nc12` [ID11, Oc1ccc2c(c1)oc1c(-c3ccc(O)c(O)c3)c3c(O)nn(C4CCCCC4)c3nc12], the IC50 is < 100 µM and 54.4 µM. The figure for `COc1cc(-c2c3oc4cc(O)ccc4c3nc3c2c(O)nn3C2CCCCCCC2)cc(O)c1O` [ID41, COc1cc(-c2c3oc4cc(O)ccc4c3nc3c2c(O)nn3C2CCCCCCC2)cc(O)c1O] is less than 100 µM; for `COc1cc(-c2c3oc4cc(O)ccc4c3nc3c2c(O)nn3C2CCCCC2)cc(O)c1O` [ID32, COc1cc(-c2c3oc4cc(O)ccc4c3nc3c2c(O)nn3C2CCCCC2)cc(O)c1O] it is less than 100 µM.

In turn, `Cc1c(O)ccc2c1oc1c(-c3ccc(O)c(O)c3)c3c(O)nn(C4CCCCC4)c3nc12` [ID20, Cc1c(O)ccc2c1oc1c(-c3ccc(O)c(O)c3)c3c(O)nn(C4CCCCC4)c3nc12] had an IC50 of less than 100 µM.

For the compound `Oc1ccc(-c2c3oc4cc(O)ccc4c3nc3c2c(O)nn3C2CCCCCC2)cc1` [ID18, Oc1ccc(-c2c3oc4cc(O)ccc4c3nc3c2c(O)nn3C2CCCCCC2)cc1], the IC50 is less than 100 µM.
